Experimental data as given in patent publication US20230086703A1, “N-(4-(5-chloropyridin-3-yl)phenyl)-2-(2-(cyclopropanesulfonamido)pyrimidin-4-yl) butanamide derivatives and related compounds as human CTPS1 inhibitors for the treatment of proliferative diseases” (Step Pharma S.A.S., priority 2019, published 2023).

Biological target: T1, human CTPS1 (Homo sapiens, UniProt P17812)
T1 construct: FLAG (with GG linker); His8 (with GG linker); purchased Proteros biostructures GmbH
T1 sequence (P17812 1-591): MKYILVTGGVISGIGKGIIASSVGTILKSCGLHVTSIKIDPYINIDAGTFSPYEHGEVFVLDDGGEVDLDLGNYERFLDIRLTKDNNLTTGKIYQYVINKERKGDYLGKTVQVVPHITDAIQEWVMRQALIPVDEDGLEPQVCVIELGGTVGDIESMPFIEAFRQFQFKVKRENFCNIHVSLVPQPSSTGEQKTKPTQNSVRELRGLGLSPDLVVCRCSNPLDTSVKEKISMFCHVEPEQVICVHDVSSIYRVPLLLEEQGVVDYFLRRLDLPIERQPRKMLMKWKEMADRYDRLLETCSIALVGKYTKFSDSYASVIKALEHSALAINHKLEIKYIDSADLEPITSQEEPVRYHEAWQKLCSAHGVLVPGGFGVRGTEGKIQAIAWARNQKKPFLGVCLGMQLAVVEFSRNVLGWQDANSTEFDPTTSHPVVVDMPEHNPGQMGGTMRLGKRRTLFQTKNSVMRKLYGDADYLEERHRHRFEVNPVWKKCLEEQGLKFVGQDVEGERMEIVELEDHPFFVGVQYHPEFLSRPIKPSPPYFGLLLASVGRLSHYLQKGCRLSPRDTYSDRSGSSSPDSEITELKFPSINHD
Assay: Human CTPS1 enzyme inhibition, ADP-Glo Max assay
Assay type: biochemical
Settings: ADP-Glo Max assay; Table 10; read-out: Human CTPS1 Enzyme Inhibition, IC50 grouped by potency range (CTPS1)
Description: The enzyme inhibitory activities of compounds invented against the target of interest were determined using the ADP-Glo™ Max assay (Promega, UK). Assays for human CTPS1 were performed in 1× assay buffer containing 50 mM Tris, 10 mM MgCl2, 0.01% Tween-20, pH to 8.0 accordingly. Finally, immediately before use, L-cysteine was added to the 1× assay buffer to a final concentration of 2 mM. All reagents are from Sigma-Aldrich unless specified otherwise.
3× human CTPS1 protein was prepared in 1× assay buffer to the final working protein concentration required for the reaction. A 2 uL volume per well of 3× human CTPS1 protein was mixed with 2 uL per well of 3× test compound (compound prepared in 1× assay buffer to an appropriate final 3× compound concentration respective to the concentration response curve designed for the compounds under test) for 10 minutes at 25° C. […] ADP-Glo™ Max reagent was added for 60 minutes (6 μL per well) and subsequently ADP-Glo™ Max development reagent was added for 60 minutes (12 uL per well) prior to signal detection in a microplate reader (EnVision® Multilabel Reader, Perkin Elmer). Following each reagent addition over the course of the assay, assay plates were pulse centrifuged for 30 seconds at 500 rpm.
In all cases, the enzyme converts ATP to ADP and the ADP-Glo™ Max reagent subsequently depletes any remaining endogenous ATP in the reaction system. The ADP-Glo™ Max detection reagent converts the ADP that has been enzymatically produced back into ATP and using ATP as a substrate together with luciferin for the enzyme luciferase, light is generated which produces a detectable luminescence. […] The percentage inhibition produced by each concentration of compound was calculated using the equation shown below: […]

SMILES	IC50 [nM]
CC(C)(C(=O)Nc1ccc(-c2cncc(C#N)c2)cc1)c1csc(NS(=O)(=O)C2CC2)n1 [T47, N-(4-(5-cyanopyridin-3-yl)phenyl)-2-(2-(cyclopropanesulfonamido)thiazol-4-yl)-2-methylpropanamide]	< 100
CC(C)(C(=O)Nc1ccc(-c2cncc(C(F)(F)F)c2)cc1)c1csc(NS(=O)(=O)C2CC2)n1 [T48, 2-(2-(cyclopropanesulfonamido)thiazol-4-yl)-2-methyl-N-(4-(5-(trifluoromethyl)pyridin-3-yl)phenyl)propanamide]	< 100
CC(C)(C(=O)Nc1ccc(-c2cncc(S(C)(=O)=O)c2)cc1)c1csc(NS(=O)(=O)C2CC2)n1 [T49, 2-(2-(cyclopropanesulfonamido)thiazol-4-yl)-2-methyl-N-(4-(5-(methylsulfonyl)pyridin-3-yl)phenyl)propanamide]	100 to 1000
COc1cncc(-c2ccc(NC(=O)C(C)(C)c3csc(NS(=O)(=O)C4CC4)n3)c(OC)c2)c1 [T50, 2-(2-(cyclopropanesulfonamido)thiazol-4-yl)-N-(2-methoxy-4-(5-methoxypyridin-3-yl)phenyl)-2-methylpropanamide]	< 100
CC(C)(C(=O)Nc1ccc(-c2cccc(C(F)(F)F)n2)cn1)c1csc(NS(=O)(=O)C2CC2)n1 [T51, 2-(2-(cyclopropanesulfonamido)thiazol-4-yl)-2-methyl-N-(6-(trifluoromethyl)-[2,3′-bipyridin]-6′-yl)propanamide]	< 100
CCOc1cncc(-c2ccc(NC(=O)C(C)(C)c3csc(NS(=O)(=O)C4CC4)n3)cc2)n1 [T52, 2-(2-(cyclopropanesulfonamido)thiazol-4-yl)-N-(4-(6-ethoxypyrazin-2-yl)phenyl)-2-methylpropanamide]	< 100
CC(C)(C(=O)Nc1ccc(-c2cncc(N3CCOCC3)n2)cc1)c1csc(NS(=O)(=O)C2CC2)n1 [T53, 2-(2-(cyclopropanesulfonamido)thiazol-4-yl)-2-methyl-N-(4-(6-morpholinopyrazin-2-yl)phenyl)propanamide]	1000 to 10000
CC(C)(C(=O)Nc1ccc(-c2cncc(OC3CCC3)n2)cc1)c1csc(NS(=O)(=O)C2CC2)n1 [T54, N-(4-(6-cyclobutoxypyrazin-2-yl)phenyl)-2-(2-(cyclopropanesulfonamido)thiazol-4-yl)-2-methylpropanamide]	100 to 1000
CCCOc1cncc(-c2ccc(NC(=O)C(C)(C)c3csc(NS(=O)(=O)C4CC4)n3)cc2)n1 [T55, 2-(2-(cyclopropanesulfonamido)thiazol-4-yl)-2-methyl-N-(4-(6-propoxypyrazin-2-yl)phenyl)propanamide]	< 100
COc1cncc(-c2ccc(NC(=O)C(C)(C)c3csc(NS(=O)(=O)C4CC4)n3)c(F)c2)c1 [T56, 2-(2-(cyclopropanesulfonamido)thiazol-4-yl)-N-(2-fluoro-4-(5-methoxypyridin-3-yl)phenyl)-2-methylpropanamide]	< 100
O=C(Nc1ccc(-c2ccccc2)cc1)C(F)(F)c1csc(NS(=O)(=O)C2CC2)n1 [T60, N-([1,1′-biphenyl]-4-yl)-2-(2-(cyclopropanesulfonamido)thiazol-4-yl)-2,2-difluoroacetamide]	100 to 1000
COc1cncc(-c2ccc(NC(=O)Cc3csc(NS(=O)(=O)C4CCC4)n3)cc2)n1 [T61, 2-(2-(cyclobutanesulfonamido)thiazol-4-yl)-N-(4-(6-methoxypyrazin-2-yl)phenyl)acetamide]	< 100
CCC(C(=O)Nc1ccc(-c2cccnc2)cn1)c1csc(NS(=O)(=O)C2CC2)n1 (stereo not drawn) [T62, N-([3,3′-bipyridin]-6-yl)-2-(2-(cyclopropanesulfonamido)thiazol-4-yl)butanamide]	100 to 1000
CC(C)(C(=O)Nc1ccc(-c2ccccc2)cn1)c1csc(NS(=O)(=O)C2CC2)n1 [T63, 2-(2-(cyclopropanesulfonamido)thiazol-4-yl)-2-methyl-N-(5-phenylpyridin-2-yl)propanamide]	100 to 1000
O=C(Cc1csc(NS(=O)(=O)C2CC2)n1)Nc1ccc(-c2cncnc2)cn1 [T64, 2-(2-(cyclopropanesulfonamido)thiazol-4-yl)-N-(5-(pyrimidin-5-yl)pyridin-2-yl)acetamide]	100 to 1000
O=C(Cc1csc(NS(=O)(=O)C2CC2)n1)Nc1ccc(-c2cccnc2)cn1 [T65, N-([3,3′-bipyridin]-6-yl)-2-(2-(cyclopropanesulfonamido)thiazol-4-yl)acetamide]	100 to 1000
O=C(Cc1csc(NS(=O)(=O)C2CC2)n1)Nc1ccc(-c2ccccc2)nc1 [T66, 2-(2-(cyclopropanesulfonamido)thiazol-4-yl)-N-(6-phenylpyridin-3-yl)acetamide]	100 to 1000
O=C(Cc1csc(NS(=O)(=O)C2CC2)n1)Nc1ccc(-c2cccnc2)nc1 [T67, N-([2,3′-bipyridin]-5-yl)-2-(2-(cyclopropanesulfonamido)thiazol-4-yl)acetamide]	100 to 1000
CC(C)(C(=O)Nc1ccc(-c2cccnn2)cc1)c1csc(NS(=O)(=O)C2CC2)n1 [T68, 2-(2-(cyclopropanesulfonamido)thiazol-4-yl)-2-methyl-N-(4-(pyridazin-3-yl)phenyl)propanamide]	100 to 1000
COc1cncc(-c2ccc(NC(=O)Cc3csc(NS(=O)(=O)C4CC4)n3)cc2)n1 [T81, 2-(2-(cyclopropanesulfonamido)thiazol-4-yl)-N-(4-(6-methoxypyrazin-2-yl)phenyl)acetamide]	< 100
O=C(Cc1csc(NS(=O)(=O)C2CC2)n1)Nc1ccc(-c2cnccn2)cc1 [T82, 2-(2-(cyclopropanesulfonamido)thiazol-4-yl)-N-(4-(pyrazin-2-yl)phenyl)acetamide]	< 100
CCC(CC)(C(=O)Nc1ccc(-c2cccnc2)cc1)c1csc(NS(=O)(=O)C2CC2)n1 [T92, 2-(2-(cyclopropanesulfonamido)thiazol-4-yl)-2-ethyl-N-(4-(pyridin-3-yl)phenyl)butanamide]	< 100
CCC(CC)(C(=O)Nc1ccc(-c2cncc(C#N)c2)cc1)c1csc(NS(=O)(=O)C2CC2)n1 [T93, N-(4-(5-cyanopyridin-3-yl)phenyl)-2-(2-(cyclopropanesulfonamido)thiazol-4-yl)-2-ethylbutanamide]	< 100
CC(C)(C(=O)Nc1ccc(-c2ccccc2)cc1)c1csc(NS(=O)(=O)C2CC2)n1 [T97, N-([1,1′-biphenyl]-4-yl)-2-(2-(cyclopropanesulfonamido)thiazol-4-yl)-2-methylpropanamide]	100 to 1000
Cc1ccncc1-c1ccc(NC(=O)Cc2csc(NS(=O)(=O)C3CC3)n2)cc1 [T98, 2-(2-(cyclopropanesulfonamido)thiazol-4-yl)-N-(4-(4-methylpyridin-3-yl)phenyl)acetamide]	100 to 1000
Cc1cncc(-c2ccc(NC(=O)Cc3csc(NS(=O)(=O)C4CC4)n3)cc2)c1 [T99, 2-(2-(cyclopropanesulfonamido)thiazol-4-yl)-N-(4-(5-methylpyridin-3-yl)phenyl)acetamide]	< 100
Cc1ccc(-c2ccc(NC(=O)Cc3csc(NS(=O)(=O)C4CC4)n3)cc2)cn1 [T101, 2-(2-(cyclopropanesulfonamido)thiazol-4-yl)-N-(4-(6-methylpyridin-3-yl)phenyl)acetamide]	1000 to 10000
Cc1ncccc1-c1ccc(NC(=O)C(C)(C)c2csc(NS(=O)(=O)C3CC3)n2)cc1 [T103, 2-(2-(cyclopropanesulfonamido)thiazol-4-yl)-2-methyl-N-(4-(2-methylpyridin-3-yl)phenyl)propanamide]	100 to 1000
O=C(Nc1ccc(-c2cccnc2)cc1)C(=O)c1csc(NS(=O)(=O)C2CC2)n1 [T104, 2-(2-(cyclopropanesulfonamido)thiazol-4-yl)-2-oxo-N-(4-(pyridin-3-yl)phenyl)acetamide]	100 to 1000
Cc1ccc(-c2ccc(NC(=O)C(C)(C)c3csc(NS(=O)(=O)C4CC4)n3)cc2)cn1 [T105, 2-(2-(cyclopropanesulfonamido)thiazol-4-yl)-2-methyl-N-(4-(6-methylpyridin-3-yl)phenyl)propanamide]	1000 to 10000
